Assay results: patent US12473250B2, “Molecular design of new antibiotics and antibiotic adjuvants against MCR strains” (priority 2019, dated 2025)
≈ marks a conversion by molar mass, not a printed value.

Experiments:
[1] = tested on: ACBA multi-drug resistant strains; assay: MIC against multi-drug resistant strains (Table 5); assay type: cell-based, Acinetobacter baumannii; conditions: alone
Experimental: (§1) MIC experiments of the antimicrobial agents were determined by a modified broth microdilution method in accordance with the Clinical and Laboratory Standards Institute (CLSI) guidelines using 96 well culture plates. In brief, serial dilutions of all plates were prepared at different concentrations (μg). The inoculum suspension was prepared by adding isolated colonies from a 18-20 hours on TSA plate into phosphate buffer (0.31 mM, pH 7.2) or in water for injection (BBraun) and adjusting the suspension to a turbidity equivalent to 0.5 McFarland Standard. Each well contained a final bacterial concentration of approximately 5×10^5 colony forming units (CFU)/mL. The plate was covered and incubated at 35° C. for 24 hours. […] For the microdilution plates, turbidity in wells can be measured at OD600 using TECAN infinite M200Pro. MIC was determined as […] concentration that gives a 99 percent inhibition.

[2] = tested on: ENT CLOACAE multi-drug resistant strains; assay: MIC against multi-drug resistant strains (Table 5); assay type: cell-based, E. cloacae; conditions: alone
Experimental: as §1

[3] = tested on: colistin resistant mcr-1 (+) strains 6083655967, 6075066346 and mcr-1 (−) strain 7023446108; assay: Time kill study; assay type: cell-based, E. coli; conditions: in 2 hours
Experimental: Time kill assay is used to determine the rate at which concentrations an antimicrobial agent kill a bacterial isolate. The bacterial suspension was adjusted to 10^6 to 10^7 CFU/mL with different concentrations of LC compounds and the antibiotics for comparison in separate tubes that incubated at 35° C. For synergy time kill: Two different antimicrobial agents which are antibiotic/LC compounds were added in an equal amount make a final volume to 1 mL (e.g: 500 μL of Antibiotic: 500 μL of LC compound) and subsequently 1 mL of prepared bacteria suspension were added into the same tube. Aliquots of 100 μL samples will be withdrawn at different time intervals (0, 1, 2, 4, 8, 24 hours) and were plated on Mueller Hinton Agar (MHA) upon set of serial dilutions. Subsequently, after 24 and 48 hours, all the plates were checked for bacteria growth and the colonies were calculated for colony-forming unit (CFU/mL) numeration and the time kill curve plotted with logarithm of the viable count against time. The results from various concentrations of antibiotics and control were plotted.
To understand the action of the combinations of LC100 with colistin, time kill experiments using the inventive combination in three colistin resistant strains, including two mcr-1(+) and one mcr-1(−) strains, were carried out.

[4] = tested on: MCR positive E. coli Clinical isolate 6083655967; assay type: in vivo; conditions: for reduction in bacterial burden: neutropenic mice, i.p. 1 hour after infection, 6 hours after treatment, colistin 10 mg/kg, LC100 50 mg/kg, meropenem 100 mg/kg, combination 50 + 10 mg/kg
Experimental: FIG. 21 refers to graphs showing the efficacy testing of combination of LC100 and Colistin in neutropenic mouse thigh infection model infected with MCR positive E. coli Clinical isolate 6083655967. Starting inoculum was 1.87×10^6, N=3. “Combination” refers to Colistin 10 mg/kg+LC100 50 mg/kg. Each treatment was done intraperitoneally 1 hour after infection. 6 hours after treatment, mouse thigh tissues were homogenized for viable CFU.
The combination of colistin and antimicrobial peptide (LC100) was tested against E. coli clinical isolate MCR-positive strain 6083655967 in a neutropenic mouse thigh infection model. C57BL/6 mice were rendered neutropenic by cyclophosphamide, dosed at 150 and 100 mg kg-1 delivered on days −4 and −1 prior to infection. Bacteria were suspended in sterile saline and adjusted to a concentration of ˜1.876×10^6 CFU per infection site (100 micro-liters) and injected intramuscularly into the right thigh of five mice per treatment group. At 1 h post infection, mice received colistin ([…], i.p. n=5), LC100 (50 mg kg-1, i.p. n=5), untreated (n=5), or the combination (n=5). Mice were euthanized 6 h after infection; thigh tissue was aseptically collected, homogenized, serially diluted in PBS and plated onto solid TSA supplemented plates. Plates were incubated overnight at 37° C. and colonies were quantified to determine bacterial load.
To evaluate the in vivo efficacy of the combination of LC100 and colistin, a neutropenic mouse thigh infection model was used. 30 mice were classed into 5 groups: control, colistin at 10 mg/kg, LC100 at 50 mg/kg, meropenem at 100 mg/kg and combination of 50 mg/kg of LC100 and 10 mg/kg of colistin. Each treatment was administered intraperitoneally 1 hour after infection. The starting inoculum was 1.87×10^6, and 6 hours after treatment, mouse thigh tissues were homogenized for viable CFU. […] As neutropenic mice were used in the study, the 1.2 log reduction in bacterial burden is due to the combination of LC100 and colistin rather than the immune system of the mouse.

mcr-1 bacterial membrane = assay: Ethidium bromide (EtBr) fluorescence, membrane disruption; assay type: cell-based; conditions: mcr-1 bacteria; in words
Experimental: (§2) However, EtBr is membrane impermeable, which means that it can only enter the bacterial cell and bind to DNA and emit fluorescence only when both the bacterial outer and inner membranes are perturbed. […] It is also possible that LC100 may have other targets. One possible target is the MCR-1 protein. To understand the interaction of LC100 and the MCR-1 protein, the fluorescence of MCR-1 protein in the presence of different concentration of LC100 was measured. MCR-1 protein contains several tryptophan residues, and autofluoresces at 323 nm.

MCR-1 protein = biological target: T1, MCR-1 protein (Escherichia coli, UniProt A0A0R6L508); assay: Fluorescence quenching of MCR-1 protein; assay type: binding; conditions: autofluorescence at 323 nm; increasing LC100 concentration
T1 construct: purchased Bioprocessing technology institute, A*STAR (Singapore, Singapore)
T1 sequence (A0A0R6L508 whole entry): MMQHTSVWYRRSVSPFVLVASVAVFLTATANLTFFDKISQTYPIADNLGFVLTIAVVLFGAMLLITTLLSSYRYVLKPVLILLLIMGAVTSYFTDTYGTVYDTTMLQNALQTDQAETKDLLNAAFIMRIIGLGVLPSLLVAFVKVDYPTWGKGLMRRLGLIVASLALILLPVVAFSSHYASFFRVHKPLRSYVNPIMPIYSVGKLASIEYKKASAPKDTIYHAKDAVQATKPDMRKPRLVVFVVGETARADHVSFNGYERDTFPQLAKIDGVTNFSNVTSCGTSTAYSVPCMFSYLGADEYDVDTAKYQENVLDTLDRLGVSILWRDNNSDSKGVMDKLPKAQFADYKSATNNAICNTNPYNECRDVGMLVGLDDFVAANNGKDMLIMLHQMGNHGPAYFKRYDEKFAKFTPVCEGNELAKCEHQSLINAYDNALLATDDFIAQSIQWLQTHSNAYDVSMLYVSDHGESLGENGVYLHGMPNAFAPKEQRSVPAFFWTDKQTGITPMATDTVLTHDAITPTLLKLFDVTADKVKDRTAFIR
Experimental: as §2

[5] = tested on: colistin resistant MCR (+) E. Coli strains; assay: MIC, broth microdilution, compound alone; assay type: cell-based
Method in brief: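 Modified CLSI broth microdilution; inoculum from 18–20 h TSA colonies adjusted to 0.5 McFarland, ~5×10^5 CFU/mL per well. Plates incubated 24 h at 35 °C; turbidity may be read at OD600. MIC defined as concentration giving 99% inhibition.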

[6] = strain 6075066346, MCR (+), compound alone
[7] = strain 6083655967, MCR (+), compound alone
[8] = strain 6103645107, MCR (+), compound alone
[9] = strain 6123520276, MCR (+), compound alone
[10] = strain 7013177695, MCR (+), compound alone
[11] = strain 7023436560, MCR (+), compound alone

Compound	MIC ([1]; strain ACBA 1010) [µg/mL]	MIC ([1]; strain ACBA 1012) [µg/mL]	MIC ([1]; strain ACBA 43357) [µg/mL]	MIC ([1]; strain ACBA ATCC 19606) [µg/mL]	MIC ([2]; strain ENT CLOACAE 6780) [µg/mL]	MIC ([2]; strain ENT CLOACAE 21489) [µg/mL]	MIC ([2]; strain ENT CLOACAE 30063) [µg/mL]	MIC ([2]; strain ENT CLOACAE 44095) [µg/mL]	reduction in bacterial burden [4]	EtBr fluorescence (mcr-1 bacterial membrane)	MIC [5, 6] [µg/mL]	MIC [5, 7] [µg/mL]	MIC [5, 8] [µg/mL]	MIC [5, 9] [µg/mL]	MIC [5, 10] [µg/mL]	MIC [5, 11] [µg/mL]	also measured
CCN(CC)CCCCOc1ccc(/C=C/C(=O)c2ccc(OCCCCN(CC)CC)c(CC=C(C)C)c2O)cc1 [LC100]	25 (≈ 43.2 µM)	50 (≈ 86.4 µM)	50 (≈ 86.4 µM)	>50	>50	>50	>50	>50	cannot reduce the bacterial burden	slight fluorescence	100 (≈ 173 µM)	100 (≈ 173 µM)	100 (≈ 173 µM)	100 (≈ 173 µM)	100 (≈ 173 µM)	100 (≈ 173 µM)	log reduction in time kill ([3]; ⅛ MIC of colistin in the presence of 10 μg/ml of LC100): 3 log; observations in treated mice ([4]; LC100 50 mg/kg or Colistin 10 mg/kg+LC100 50 mg/kg, intraperitoneally): Abdominal distension; fluorescence of MCR-1 protein (quenching) (MCR-1 protein): the fluorescence decreases; antimicrobial activity when used alone ([5]; colistin resistant bacteria, in words): no activity; MIC ([5]; strain 7028444207 (Table 1b), MCR (+), compound alone): 100 µg/mL (≈ 173 µM)
Colistin	0.78	0.78	3.125	1.56	1.56	0.78	>50	>50	cannot reduce the bacterial burden	slight fluorescence	6.25	6.25	6.25	6.25	6.25	6.25	log reduction in time kill ([3]; colistin at concentrations equal or above the MIC): 3 log; colistin MIC ([5]; colistin alone): more than 6 μg/ml; MIC ([5]; panel of colistin resistant strains): 6.25 µg/mL; MIC ([5]; strain 7023444207, MCR (+), compound alone): 6.25 µg/mL
